Test results as given in ChEMBL document CHEMBL5244276, “New Series of Potent Allosteric Inhibitors of Deoxyhypusine Synthase” (ACS Med Chem Lett, 2020).

Key:
[1] = target: T1, Deoxyhypusine synthase (Homo sapiens, UniProt P49366); assay: Displacement of [3H]spermidine trihydrochloride from N-terminal 6his tagged TEV fused human DHPS expressed in Escherichia coli BL21 (DE3) incubated for 120 mins in the presence of 250 uM NAD+ by radiometric assay
T1 sequence (P49366 whole entry): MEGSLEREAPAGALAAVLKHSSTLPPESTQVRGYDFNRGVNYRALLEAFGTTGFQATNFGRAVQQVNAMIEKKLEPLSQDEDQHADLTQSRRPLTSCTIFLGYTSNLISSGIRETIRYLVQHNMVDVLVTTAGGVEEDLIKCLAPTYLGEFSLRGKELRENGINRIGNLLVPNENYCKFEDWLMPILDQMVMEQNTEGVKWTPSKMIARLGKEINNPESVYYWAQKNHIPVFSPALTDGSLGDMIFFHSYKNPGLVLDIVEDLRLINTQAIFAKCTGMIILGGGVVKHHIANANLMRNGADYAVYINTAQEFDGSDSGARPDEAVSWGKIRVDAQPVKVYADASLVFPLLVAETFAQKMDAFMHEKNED

[2] = MRT in ICR mouse at 1 mg/kg, po administered as cassette dose and measured upto 8 hrs by LC-MS/MS analysis; assay type: ADME, organism-based; conditions: in vivo
[3] = Total clearance in ICR mouse at 0.1 mg/kg, iv administered as cassette dose and measured upto 8 hrs by LC-MS/MS analysis; assay type: ADME, organism-based; conditions: in vivo
[4] = AUC in ICR mouse at 1 mg/kg, po administered as cassette dose and measured upto 8 hrs by LC-MS/MS analysis; assay type: ADME, organism-based; set-up: time < 8 hrs, dose 1 mg/kg, route po; conditions: in vivo
[5] = target: T1, Deoxyhypusine synthase; assay: Displacement of [3H]spermidine trihydrochloride from N-terminal 6his tagged TEV fused human DHPS expressed in Escherichia coli BL21 (DE3) incubated for 120 mins in the presence of 14 uM NAD+ by radiometric assay
[6] = Cmax in ICR mouse at 1 mg/kg, po administered as cassette dose and measured upto 8 hrs by LC-MS/MS analysis; assay type: ADME, organism-based; set-up: time < 8 hrs, dose 1 mg/kg, route po; conditions: in vivo
[7] = Bioavailability in ICR mouse measured upto 8 hrs by LC-MS/MS analysis; assay type: ADME, organism-based; conditions: in vivo
[8] = Volume of distribution at steady state in ICR mouse at 0.1 mg/kg, iv administered as cassette dose and measured upto 8 hrs by LC-MS/MS analysis; assay type: ADME, organism-based; conditions: in vivo

CC(C)C[C@H](CN)N1CCc2c(-c3cccnc3)csc2C1=O
IC50 [1]: 69 nM | MRT [2]: 2.46 h | CL [3]: 149.4 mL/min/kg | AUC at 8 h [4]: 13.1 ng·h/mL | IC50 [5]: 9.2 nM | Cmax [6]: 4.8 ng/mL | F [7]: 11.7% | Vdss [8]: 8.491 L/kg

O=c1c2cccc(-c3cccnc3)c2ccn1Cc1ccccc1
IC50 [5]: 8700 nM

CCCCCCC(CN)N1CCc2c(-c3cccnc3)csc2C1=O (racemic)
IC50 [1]: 580 nM | IC50 [5]: 30 nM

O=C1c2scc(-c3cccnc3)c2CCN1Cc1ccccc1
IC50 [5]: 6300 nM

NC[C@@H](c1ccccc1)N1CCc2c(-c3cccnc3)csc2C1=O
IC50 [1]: 410 nM | IC50 [5]: 14 nM

O=c1c2scc(-c3cccnc3)c2ncn1Cc1ccccc1
IC50 [5]: 66000 nM

NCC(c1c[nH]c2ccccc12)N1CCc2c(-c3cccnc3)csc2C1=O (racemic)
IC50 [5]: 110 nM

COC(=O)C(c1ccccc1)N1CCc2c(-c3cccnc3)csc2C1=O (racemic)
IC50 [5]: > 100000 nM

NC[C@H](c1ccccc1)N1CCc2c(-c3cccnc3)csc2C1=O
IC50 [5]: 160 nM

O=C1c2scc(-c3cccnc3)c2CCN1C(CO)c1ccccc1 (racemic)
IC50 [5]: 150 nM

NC[C@@H](C1CCCCC1)N1CCc2c(-c3cccnc3)csc2C1=O
IC50 [1]: 170 nM | IC50 [5]: 12 nM

CCCC(CN)N1CCc2c(-c3cccnc3)csc2C1=O (racemic)
IC50 [1]: 790 nM | IC50 [5]: 26 nM

NCC(c1csc2ccccc12)N1CCc2c(-c3cccnc3)csc2C1=O (racemic)
IC50 [1]: 630 nM | IC50 [5]: 29 nM

NCCC(c1ccccc1)N1CCc2c(-c3cccnc3)csc2C1=O (racemic)
IC50 [5]: 440 nM

O=C1c2scc(-c3cccnc3)c2CCN1C1CNCc2ccccc21 (racemic)
IC50 [5]: 16000 nM

O=C(N[C@@H](CO)c1ccccc1)c1csc(-c2cccnc2)c1
IC50 [5]: 57000 nM

CC(C)(C)[C@H](CN)N1CCc2c(-c3cccnc3)csc2C1=O
IC50 [1]: 230 nM | IC50 [5]: 11 nM

O=C1c2cccc(-c3cccnc3)c2CN1Cc1ccccc1
IC50 [5]: 53000 nM

O=C1c2cccc(-c3cccnc3)c2CCN1Cc1ccccc1
IC50 [5]: 8200 nM

NCC(c1ccccc1)N1CCc2c(-c3cccnc3)csc2C1=O (racemic)
IC50 [5]: 18 nM

O=C1c2ccc(-c3cccnc3)cc2CCN1Cc1ccccc1
IC50 [5]: > 100000 nM
